ChEMBL document CHEMBL4507269, “Data for DCP probe BAY-386” (2021)

Experiments:
[1] = target: Serine/threonine-protein kinase SIK1 (Homo sapiens) (UniProt P57059); conditions: Compound concentration 1000.0 nM
[2] = target: LIM domain kinase 1 (Homo sapiens) (UniProt P53667); conditions: Compound concentration 1000.0 nM
[3] = target: Mitogen-activated protein kinase 8 (Homo sapiens) (UniProt P45983); conditions: Compound concentration 1000.0 nM
[4] = target: Ephrin type-B receptor 3 (Homo sapiens) (UniProt P54753); conditions: Compound concentration 1000.0 nM
Ephrin type-B receptor 3 (Homo sapiens), sequence (P54753 whole entry): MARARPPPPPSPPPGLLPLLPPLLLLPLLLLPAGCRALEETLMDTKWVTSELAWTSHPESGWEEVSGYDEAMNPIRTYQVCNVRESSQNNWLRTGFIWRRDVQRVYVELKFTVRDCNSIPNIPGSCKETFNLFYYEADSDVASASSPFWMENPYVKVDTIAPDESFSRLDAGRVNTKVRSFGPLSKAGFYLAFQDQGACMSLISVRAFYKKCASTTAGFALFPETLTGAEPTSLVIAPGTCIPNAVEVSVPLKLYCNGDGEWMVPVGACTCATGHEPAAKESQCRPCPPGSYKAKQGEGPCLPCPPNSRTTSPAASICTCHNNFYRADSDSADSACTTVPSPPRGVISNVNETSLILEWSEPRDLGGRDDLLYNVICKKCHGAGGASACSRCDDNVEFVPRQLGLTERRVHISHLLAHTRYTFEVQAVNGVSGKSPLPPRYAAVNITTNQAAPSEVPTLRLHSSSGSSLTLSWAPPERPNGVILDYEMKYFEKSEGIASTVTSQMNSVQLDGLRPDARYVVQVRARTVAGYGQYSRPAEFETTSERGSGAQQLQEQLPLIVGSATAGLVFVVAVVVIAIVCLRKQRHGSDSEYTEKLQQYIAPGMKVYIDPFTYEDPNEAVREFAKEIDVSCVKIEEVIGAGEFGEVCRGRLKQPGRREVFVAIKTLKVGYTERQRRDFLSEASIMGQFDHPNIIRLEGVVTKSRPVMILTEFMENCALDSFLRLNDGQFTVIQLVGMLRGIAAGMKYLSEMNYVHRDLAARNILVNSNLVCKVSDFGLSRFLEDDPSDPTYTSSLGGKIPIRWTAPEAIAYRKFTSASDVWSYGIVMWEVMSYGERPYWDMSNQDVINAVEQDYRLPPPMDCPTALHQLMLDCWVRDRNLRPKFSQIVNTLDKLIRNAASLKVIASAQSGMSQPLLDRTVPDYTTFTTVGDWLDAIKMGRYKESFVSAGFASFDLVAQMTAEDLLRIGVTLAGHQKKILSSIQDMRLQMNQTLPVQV

[5] = target: Calcium/calmodulin-dependent protein kinase kinase 1 (Homo sapiens) (UniProt Q8N5S9); conditions: Compound concentration 1000.0 nM
[6] = target: Delta-type opioid receptor (Homo sapiens) (UniProt P41143); conditions: Compound concentration 10.0 uM
[7] = target: Serine/threonine-protein kinase 26 (Homo sapiens) (UniProt Q9P289); conditions: Compound concentration 1000.0 nM
Serine/threonine-protein kinase 26 (Homo sapiens), sequence (Q9P289 2-416 limits assumed): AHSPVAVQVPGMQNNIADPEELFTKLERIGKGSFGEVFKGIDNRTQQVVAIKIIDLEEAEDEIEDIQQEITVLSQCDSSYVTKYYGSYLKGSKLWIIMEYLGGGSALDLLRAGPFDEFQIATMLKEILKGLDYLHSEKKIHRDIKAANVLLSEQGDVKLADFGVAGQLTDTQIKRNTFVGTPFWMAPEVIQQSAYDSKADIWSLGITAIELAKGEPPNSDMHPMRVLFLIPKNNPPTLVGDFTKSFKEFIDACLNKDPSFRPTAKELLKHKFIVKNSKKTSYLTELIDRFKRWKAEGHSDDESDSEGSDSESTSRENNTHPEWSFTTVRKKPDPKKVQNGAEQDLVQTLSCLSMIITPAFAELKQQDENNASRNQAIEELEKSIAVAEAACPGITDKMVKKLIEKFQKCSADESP

[8] = target: Misshapen-like kinase 1 (Homo sapiens) (UniProt Q8N4C8); conditions: Compound concentration 1000.0 nM
[9] = target: Ephrin type-A receptor 6 (Homo sapiens) (UniProt Q9UF33); conditions: Compound concentration 1000.0 nM
[10] = target: Tyrosine-protein kinase Srms (Homo sapiens) (UniProt Q9H3Y6); conditions: Compound concentration 1000.0 nM
[11] = target: Cyclin-G-associated kinase (Homo sapiens) (UniProt O14976); conditions: Compound concentration 1000.0 nM
[12] = target: Serine/threonine-protein kinase SBK1 (Homo sapiens) (UniProt Q52WX2); conditions: Compound concentration 1000.0 nM
[13] = target: Histamine H1 receptor (Homo sapiens) (UniProt P35367); experiment: H1 (h) Eurofins-Cerep Cellular and Nuclear Receptor Functional Assays; conditions: Compound concentration 10.0 uM
Histamine H1 receptor (Homo sapiens), sequence (P35367 whole entry): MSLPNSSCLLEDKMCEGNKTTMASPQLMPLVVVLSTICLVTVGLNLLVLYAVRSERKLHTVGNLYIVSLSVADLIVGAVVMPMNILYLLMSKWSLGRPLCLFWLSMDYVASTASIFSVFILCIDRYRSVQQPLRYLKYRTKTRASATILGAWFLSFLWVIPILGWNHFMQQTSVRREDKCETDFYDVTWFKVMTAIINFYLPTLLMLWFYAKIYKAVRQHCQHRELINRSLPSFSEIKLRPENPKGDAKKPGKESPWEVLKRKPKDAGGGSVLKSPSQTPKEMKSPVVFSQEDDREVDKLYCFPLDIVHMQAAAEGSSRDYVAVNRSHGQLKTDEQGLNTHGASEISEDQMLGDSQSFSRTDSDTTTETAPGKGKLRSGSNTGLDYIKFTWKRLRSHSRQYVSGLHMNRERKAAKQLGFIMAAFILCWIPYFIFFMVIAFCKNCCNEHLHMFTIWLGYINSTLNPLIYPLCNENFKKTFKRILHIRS

[14] = target: T1, 5-hydroxytryptamine receptor 1A (Homo sapiens) (UniProt P08908); conditions: Compound concentration 10.0 uM
T1 sequence (whole entry): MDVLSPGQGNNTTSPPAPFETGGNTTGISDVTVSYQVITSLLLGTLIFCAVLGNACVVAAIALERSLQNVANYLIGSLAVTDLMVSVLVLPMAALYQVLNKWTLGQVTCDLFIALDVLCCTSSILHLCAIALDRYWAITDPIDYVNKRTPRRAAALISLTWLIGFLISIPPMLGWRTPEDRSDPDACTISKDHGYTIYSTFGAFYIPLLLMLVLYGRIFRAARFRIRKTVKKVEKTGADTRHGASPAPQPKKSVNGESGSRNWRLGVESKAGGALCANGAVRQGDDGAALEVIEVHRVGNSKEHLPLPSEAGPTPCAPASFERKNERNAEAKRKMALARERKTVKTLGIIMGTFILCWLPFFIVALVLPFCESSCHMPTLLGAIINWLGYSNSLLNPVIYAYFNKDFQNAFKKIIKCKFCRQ

[15] = target: Ribosomal protein S6 kinase alpha-5 (Homo sapiens) (UniProt O75582); conditions: Compound concentration 1000.0 nM
[16] = target: Serine/threonine-protein kinase D3 (Homo sapiens) (UniProt O94806); conditions: Compound concentration 1000.0 nM
[17] = target: Wee1-like protein kinase 2 (Homo sapiens) (UniProt P0C1S8); conditions: Compound concentration 1000.0 nM
[18] = target: Fibroblast growth factor receptor 4 (Homo sapiens) (UniProt P22455); conditions: Compound concentration 1000.0 nM
[19] = target: Non-receptor tyrosine-protein kinase TNK1 (Homo sapiens) (UniProt Q13470); conditions: Compound concentration 1000.0 nM
[20] = target: Serine/threonine-protein kinase MRCK beta (Homo sapiens) (UniProt Q9Y5S2); conditions: Compound concentration 1000.0 nM
[21] = target: Phosphatidylinositol 4-kinase beta (Homo sapiens) (UniProt Q9UBF8); conditions: Compound concentration 1000.0 nM
[22] = target: High affinity nerve growth factor receptor (Homo sapiens) (UniProt P04629); conditions: Compound concentration 1000.0 nM
[23] = target: Tyrosine-protein kinase FRK (Homo sapiens) (UniProt P42685); conditions: Compound concentration 1000.0 nM
[24] = target: Serine/threonine-protein kinase 35 (Homo sapiens) (UniProt Q8TDR2); conditions: Compound concentration 1000.0 nM
[25] = target: RAC-alpha serine/threonine-protein kinase (Homo sapiens) (UniProt P31749); conditions: Compound concentration 1000.0 nM
[26] = target: Serine/threonine-protein kinase Sgk1 (Homo sapiens) (UniProt O00141); conditions: Compound concentration 1000.0 nM
Serine/threonine-protein kinase Sgk1 (Homo sapiens), sequence (O00141 whole entry): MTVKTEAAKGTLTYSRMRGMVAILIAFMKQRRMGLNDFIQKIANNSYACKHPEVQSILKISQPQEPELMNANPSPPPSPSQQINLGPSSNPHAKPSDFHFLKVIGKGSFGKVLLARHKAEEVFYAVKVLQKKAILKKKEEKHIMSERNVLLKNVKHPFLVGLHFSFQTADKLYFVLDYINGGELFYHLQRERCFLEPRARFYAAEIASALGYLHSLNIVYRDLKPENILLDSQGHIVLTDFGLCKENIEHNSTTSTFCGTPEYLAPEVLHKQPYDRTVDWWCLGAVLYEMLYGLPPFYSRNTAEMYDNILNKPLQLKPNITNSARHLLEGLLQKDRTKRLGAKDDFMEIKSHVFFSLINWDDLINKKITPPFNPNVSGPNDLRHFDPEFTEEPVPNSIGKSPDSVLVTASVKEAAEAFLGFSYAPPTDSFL

[27] = target: Microtubule-associated serine/threonine-protein kinase 1 (Homo sapiens) (UniProt Q9Y2H9); conditions: Compound concentration 1000.0 nM
[28] = target: Serine/threonine-protein kinase OSR1 (Homo sapiens) (UniProt O95747); conditions: Compound concentration 1000.0 nM
[29] = target: Serine/threonine-protein kinase PLK4 (Homo sapiens) (UniProt O00444); conditions: Compound concentration 1000.0 nM
Serine/threonine-protein kinase PLK4 (Homo sapiens), sequence (O00444 whole entry): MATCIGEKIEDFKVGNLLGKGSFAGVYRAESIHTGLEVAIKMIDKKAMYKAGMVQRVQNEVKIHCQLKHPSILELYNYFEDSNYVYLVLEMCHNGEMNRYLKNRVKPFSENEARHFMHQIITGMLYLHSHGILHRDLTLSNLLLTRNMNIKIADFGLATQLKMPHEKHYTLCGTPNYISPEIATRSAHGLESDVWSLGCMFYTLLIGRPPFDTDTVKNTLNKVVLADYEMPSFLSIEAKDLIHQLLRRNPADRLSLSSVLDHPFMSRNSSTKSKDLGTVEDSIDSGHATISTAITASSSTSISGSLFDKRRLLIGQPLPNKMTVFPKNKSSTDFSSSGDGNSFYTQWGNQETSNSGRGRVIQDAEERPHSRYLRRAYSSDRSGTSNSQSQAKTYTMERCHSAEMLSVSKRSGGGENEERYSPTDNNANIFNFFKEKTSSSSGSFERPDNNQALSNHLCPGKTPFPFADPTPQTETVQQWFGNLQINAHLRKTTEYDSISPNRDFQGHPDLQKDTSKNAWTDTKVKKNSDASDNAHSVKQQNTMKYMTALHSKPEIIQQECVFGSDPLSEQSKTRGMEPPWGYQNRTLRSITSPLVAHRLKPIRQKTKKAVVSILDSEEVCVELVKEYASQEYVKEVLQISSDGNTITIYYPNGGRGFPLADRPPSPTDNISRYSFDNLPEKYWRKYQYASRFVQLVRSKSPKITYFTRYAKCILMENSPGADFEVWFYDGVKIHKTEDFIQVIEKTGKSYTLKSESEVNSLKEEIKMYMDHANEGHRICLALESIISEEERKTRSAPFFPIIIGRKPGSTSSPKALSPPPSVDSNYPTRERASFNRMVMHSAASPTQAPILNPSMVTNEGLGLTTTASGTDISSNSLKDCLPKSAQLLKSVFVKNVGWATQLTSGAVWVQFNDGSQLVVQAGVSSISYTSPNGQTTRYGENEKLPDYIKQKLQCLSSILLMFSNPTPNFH

[30] = target: Tyrosine-protein kinase receptor UFO (Homo sapiens) (UniProt P30530); conditions: Compound concentration 1000.0 nM
[31] = test system: Tyrosine-protein kinase ABL1 (Homo sapiens), P00519 [Y253F]; conditions: Compound concentration 1000.0 nM
[32] = test system: Proto-oncogene tyrosine-protein kinase receptor Ret (Homo sapiens), P07949 [V804L]; conditions: Compound concentration 1000.0 nM
[33] = target: Cyclin-dependent kinase 17 (Homo sapiens) (UniProt Q00537); conditions: Compound concentration 1000.0 nM
Cyclin-dependent kinase 17 (Homo sapiens), sequence (Q00537 whole entry, looked up): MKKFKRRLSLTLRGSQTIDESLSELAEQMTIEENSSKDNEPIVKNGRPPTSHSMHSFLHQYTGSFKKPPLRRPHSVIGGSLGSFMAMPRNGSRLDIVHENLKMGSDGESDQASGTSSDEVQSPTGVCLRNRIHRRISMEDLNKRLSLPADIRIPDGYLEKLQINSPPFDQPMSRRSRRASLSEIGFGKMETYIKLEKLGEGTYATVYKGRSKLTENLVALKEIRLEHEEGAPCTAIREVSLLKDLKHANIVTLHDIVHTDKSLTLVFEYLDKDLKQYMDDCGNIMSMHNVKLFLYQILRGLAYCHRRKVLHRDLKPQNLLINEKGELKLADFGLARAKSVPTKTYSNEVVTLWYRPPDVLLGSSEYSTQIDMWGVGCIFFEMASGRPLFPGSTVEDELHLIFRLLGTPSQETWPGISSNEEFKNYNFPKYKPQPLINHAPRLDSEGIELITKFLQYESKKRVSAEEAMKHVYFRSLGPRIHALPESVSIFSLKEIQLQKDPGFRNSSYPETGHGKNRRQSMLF

[34] = target: Serine/threonine-protein kinase tousled-like 2 (Homo sapiens) (UniProt Q86UE8); conditions: Compound concentration 1000.0 nM
Serine/threonine-protein kinase tousled-like 2 (Homo sapiens), sequence (Q86UE8 whole entry, looked up): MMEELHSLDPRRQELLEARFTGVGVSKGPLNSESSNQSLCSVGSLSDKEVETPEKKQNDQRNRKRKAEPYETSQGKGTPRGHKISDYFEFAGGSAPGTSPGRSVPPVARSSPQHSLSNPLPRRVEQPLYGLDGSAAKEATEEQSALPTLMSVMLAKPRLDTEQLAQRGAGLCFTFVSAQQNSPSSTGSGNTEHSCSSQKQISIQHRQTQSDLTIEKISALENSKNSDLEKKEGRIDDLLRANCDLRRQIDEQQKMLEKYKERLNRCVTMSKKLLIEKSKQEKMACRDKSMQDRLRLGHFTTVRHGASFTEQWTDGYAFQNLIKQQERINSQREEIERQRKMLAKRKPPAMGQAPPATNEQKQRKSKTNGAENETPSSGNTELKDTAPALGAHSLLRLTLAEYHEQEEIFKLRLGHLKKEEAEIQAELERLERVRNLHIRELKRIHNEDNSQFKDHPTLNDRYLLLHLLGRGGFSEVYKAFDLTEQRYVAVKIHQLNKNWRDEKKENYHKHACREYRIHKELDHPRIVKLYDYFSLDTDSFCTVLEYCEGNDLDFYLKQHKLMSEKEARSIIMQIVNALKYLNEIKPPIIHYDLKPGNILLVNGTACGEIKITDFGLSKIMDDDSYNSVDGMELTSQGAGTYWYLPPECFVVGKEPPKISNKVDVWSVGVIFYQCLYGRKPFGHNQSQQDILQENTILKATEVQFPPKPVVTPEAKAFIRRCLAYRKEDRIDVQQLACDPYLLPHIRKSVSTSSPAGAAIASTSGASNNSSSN

[35] = target: Mitogen-activated protein kinase 15 (Homo sapiens) (UniProt Q8TD08); conditions: Compound concentration 1000.0 nM
[36] = target: Glycogen synthase kinase-3 beta (Homo sapiens) (UniProt P49841); conditions: Compound concentration 1000.0 nM
[37] = target: D(1A) dopamine receptor (Homo sapiens) (UniProt P21728); experiment: D1 (h) Eurofins-Cerep Cellular and Nuclear Receptor Functional Assays; conditions: Compound concentration 10.0 uM
D(1A) dopamine receptor (Homo sapiens), sequence (P21728 whole entry): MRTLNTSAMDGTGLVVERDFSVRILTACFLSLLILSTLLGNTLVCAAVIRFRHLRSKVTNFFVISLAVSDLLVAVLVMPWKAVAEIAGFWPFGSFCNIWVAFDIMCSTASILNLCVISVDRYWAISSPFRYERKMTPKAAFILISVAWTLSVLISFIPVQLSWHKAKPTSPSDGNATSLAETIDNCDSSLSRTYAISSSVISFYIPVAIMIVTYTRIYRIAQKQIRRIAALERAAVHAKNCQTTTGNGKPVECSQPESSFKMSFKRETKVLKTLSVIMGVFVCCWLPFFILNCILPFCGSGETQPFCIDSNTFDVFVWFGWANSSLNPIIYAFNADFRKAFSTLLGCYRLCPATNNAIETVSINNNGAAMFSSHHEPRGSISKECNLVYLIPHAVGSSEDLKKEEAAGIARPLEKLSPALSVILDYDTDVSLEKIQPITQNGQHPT

[38] = target: RAF proto-oncogene serine/threonine-protein kinase (Homo sapiens) (UniProt P04049); conditions: Compound concentration 1000.0 nM
[39] = target: Receptor tyrosine-protein kinase erbB-3 (Homo sapiens) (UniProt P21860); conditions: Compound concentration 1000.0 nM

Q: Which results are given for `O=C(N1CCS(=O)(=O)CC1)N1C[C@H](c2ccc(OC(F)(F)F)cc2)C[C@H](c2nc(C3CC3)no2)C1` [BAY-386]?
A: residual activity [1]: 99%; residual activity [2]: 100%; residual activity [3]: 82%; residual activity [4]: 100%; residual activity [5]: 100%; inhibition [6]: -2.63%; residual activity [7]: 94%; residual activity [8]: 99%; residual activity [9]: 100%; residual activity [10]: 100%; residual activity [11]: 100%; residual activity [12]: 90%; % Inhibition of Control Agonist Response (Mean n=2) [13]: 6.9%; % of Control Agonist Response (Mean n=2) [13]: 4.1%; inhibition [14]: 14.7%; residual activity [15]: 100%; residual activity [16]: 100%; residual activity [17]: 100%; residual activity [18]: 100%; residual activity [19]: 100%; residual activity [20]: 100%; residual activity [21]: 100%; residual activity [22]: 87%; residual activity [23]: 100%; residual activity [24]: 100%; residual activity [25]: 96%; residual activity [26]: 91%; residual activity [27]: 100%; residual activity [28]: 100%; residual activity [29]: 100%; residual activity [30]: 100%; residual activity [31]: 100%; residual activity [32]: 99%; residual activity [33]: 98%; residual activity [34]: 100%; residual activity [35]: 100%; residual activity [36]: 100%; % Inhibition of Control Agonist Response (Mean n=2) [37]: -31.6%; % of Control Agonist Response (Mean n=2) [37]: -1.4%; residual activity [38]: 100%; residual activity [39]: 100%

Q: How did the residual activity [1] turn out when `Cc1noc([C@H]2C[C@@H](c3ccc(C(F)(F)F)cc3)CN(C(=O)N3CCS(=O)(=O)C3)C2)n1` [BAY-448] was run?
A: 100%

Q: What about the residual activity [2] of the same compound?
A: 100%

Q: What about the residual activity [3] of the same compound?
A: 77%

Q: And the residual activity [4]?
A: 100%

Q: And the residual activity [5]?
A: 100%

Q: And the inhibition [6]?
A: -0.62%

Q: What about the residual activity [7] of the same compound?
A: 74%

Q: What about the residual activity [8] of the same compound?
A: 100%

Q: And the residual activity [9]?
A: 100%

Q: What about the residual activity [10] of the same compound?
A: 89%

Q: And the residual activity [11]?
A: 97%

Q: And the residual activity [12]?
A: 100%

Q: And the % Inhibition of Control Agonist Response (Mean n=2) [13]?
A: -14.6%

Q: What about the % of Control Agonist Response (Mean n=2) [13] of the same compound?
A: 0.3%

Q: What about the inhibition [14] of the same compound?
A: -4.52%

Q: What about the residual activity [15] of the same compound?
A: 85%

Q: And the residual activity [16]?
A: 100%

Q: What about the residual activity [17] of the same compound?
A: 100%

Q: What about the residual activity [18] of the same compound?
A: 100%

Q: What about the residual activity [19] of the same compound?
A: 100%

Q: And the residual activity [20]?
A: 100%

Q: What about the residual activity [21] of the same compound?
A: 93%

Q: And the residual activity [22]?
A: 90%

Q: And the residual activity [23]?
A: 100%

Q: And the residual activity [24]?
A: 99%

Q: What about the residual activity [25] of the same compound?
A: 90%

Q: And the residual activity [26]?
A: 100%

Q: And the residual activity [27]?
A: 100%

Q: What about the residual activity [28] of the same compound?
A: 89%

Q: What about the residual activity [29] of the same compound?
A: 88%

Q: And the residual activity [30]?
A: 100%

Q: What about the residual activity [31] of the same compound?
A: 100%

Q: And the residual activity [32]?
A: 100%

Q: And the residual activity [33]?
A: 100%

Q: And the residual activity [34]?
A: 100%

Q: And the residual activity [35]?
A: 100%

Q: What about the residual activity [36] of the same compound?
A: 92%

Q: What about the % Inhibition of Control Agonist Response (Mean n=2) [37] of the same compound?
A: 13.9%

Q: And the % of Control Agonist Response (Mean n=2) [37]?
A: -1.2%

Q: And the residual activity [38]?
A: 100%

Q: And the residual activity [39]?
A: 100%
